The subject of one experiment is A431. The experiment can be described thus: A431 cell proliferation assay (CellTiter Glo, 72 hours). In kind it is cell-based. The following applies: Homo sapiens, A-431, 72 h, cell proliferation, A431, 72 hours, Table 2; read-out: A431 IC50. Here is the method:
(§1) Cell line: Ba/F3 cells with EGFR Δ19del/T790M/C797S mutation gene stably overexpressed named Ba/F3-Δ119del/T90M/C797S, and A431 and Ba/F3-EGFR wild-type cell line.
RPMI 1640 and 10% FBS and 1% PS; DMEM and 10% FBS and 1% PS.
a) Dilute the test compound (20 mM stock solution) to 10 mM with 100% DMSO as the starting concentration, and then serially dilute 3 times with a “9+0” concentration in 96-well dilution plate (Cat #P-05525, Labcyte);
b) Dilute compound solution thereof to 1:100 (1:20 for comparative compound 1 and compounds 1-38) in medium to prepare 10-fold working solution;
(§2) a) Centrifuge the growth cells in logarithmic phase at 1000 rpm for 5 minutes, resuspend the cells in culture medium, and then count the cells;
(§3) b) Inoculate the cells into a 96-well cell culture plate with a density of 2000 cells/well;
a) Compounds prepared at step 2 were added to cell plate with 15 μl per well, the final concentrations were 1000, 333, 111.1, 37, 12.3, 4.1, 1.4, 0.5, 0.2 and 0 nM, and the final concentration of DMSO was 0.1%. The blank control well was a culture medium (0.1% DMSO) (the blank control well of comparative compound 1 and compounds 1-38 was a culture medium (0.5% DMSO).
(§4) b) Incubate cells in an incubator for another 72 hours.
(§5) a) Take out the 96-well cell culture plate and add 50 μl CTG reagent (CellTiter Glo kit, promega, Cat #G7573);
(§6) b) Shake the plate for 2 minutes and let cool at room temperature for 10 minutes;
(§7) c) Read luminous signal value with PerkinElmer reader,
(§8) Analysis of Experimental Data
(§9) The data were analyzed by GraphPad Prism 6.0 software to obtain the fitting curve of compound activity.
Fitting compound IC50 from nonlinear regression equation:
(§10) Y=Min+(Max−Min)/(1+10^((Log IC50−X)*slope));
(§11) X: Logarithm of compound concentration; Y: luminous signal.

The next experiment concerns the target EGFR WT (Homo sapiens, UniProt P00533). The experiment can be described thus: EGFR WT kinase test (mobility variation analysis, Caliper EZ Reader). It is filed as biochemical. The settings on record: kinase enzymatic activity, Table 1. In short, it runs like this: (§12)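 Kinase pre-incubated with compound 10 minutes at room temperature, then ATP plus peptide substrate added; substrate conversion read by mobility shift after stop solution. Percent inhibition normalized to no-compound and no-enzyme controls; IC50 from variable-slope log(inhibitor) fit.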

Experiment [1] deals with Ba/F3 cells with EGFR Δ19del/T790M/C797S mutation gene stably overexpressed (Homo sapiens, UniProt P00533, T790M/C797S, cells depend on it, form not given). The experiment is described as follows: Ba/F3-Δ19del/T790M/C797S cell proliferation assay (CellTiter Glo, 72 hours). In kind it is cell-based. The settings on record: Table 2, read-out: EGFR Δ19del/T790M/C797S IC50. As to the method:
as §1, §2, §3, §4, §5, §6, §7, §8, §9, §10, §11
For orientation: Cellular ATP, detected with luciferase, serves as a proxy for viable cell number.

Another experiment has as its target EGFRΔ19del/T790M/C797S (Homo sapiens, UniProt P00533, T790M/C797S, form not given). The experiment is described as follows: EGFR Δ19del/T790M/C797S kinase test (mobility variation analysis, Caliper EZ Reader). In kind it is biochemical. The settings on record: kinase enzymatic activity, Table 1. In short, it runs like this:
as §12

The target of another experiment is IGF1R (Homo sapiens, UniProt P08069). The experiment can be described thus: IGF1R kinase test (mobility variation analysis, Caliper EZ Reader). It is filed as biochemical. The following applies: kinase enzymatic activity, Table 1; read-out: EGFR IGF1R IC50. The essentials:
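Kinase preincubated 10 min at room temperature with compound (10-point 3-fold series, top 3000 nM), then ATP and substrate added and reacted at room temperature. Substrate conversion read by mobility-shift (Caliper EZ Reader); % inhibition vs no-enzyme and no-compound controls fitted to variable-slope curve for IC50.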

Molecules are shown by their SMILES.

Chain of IGF1R (P08069 31-1367, species assumed): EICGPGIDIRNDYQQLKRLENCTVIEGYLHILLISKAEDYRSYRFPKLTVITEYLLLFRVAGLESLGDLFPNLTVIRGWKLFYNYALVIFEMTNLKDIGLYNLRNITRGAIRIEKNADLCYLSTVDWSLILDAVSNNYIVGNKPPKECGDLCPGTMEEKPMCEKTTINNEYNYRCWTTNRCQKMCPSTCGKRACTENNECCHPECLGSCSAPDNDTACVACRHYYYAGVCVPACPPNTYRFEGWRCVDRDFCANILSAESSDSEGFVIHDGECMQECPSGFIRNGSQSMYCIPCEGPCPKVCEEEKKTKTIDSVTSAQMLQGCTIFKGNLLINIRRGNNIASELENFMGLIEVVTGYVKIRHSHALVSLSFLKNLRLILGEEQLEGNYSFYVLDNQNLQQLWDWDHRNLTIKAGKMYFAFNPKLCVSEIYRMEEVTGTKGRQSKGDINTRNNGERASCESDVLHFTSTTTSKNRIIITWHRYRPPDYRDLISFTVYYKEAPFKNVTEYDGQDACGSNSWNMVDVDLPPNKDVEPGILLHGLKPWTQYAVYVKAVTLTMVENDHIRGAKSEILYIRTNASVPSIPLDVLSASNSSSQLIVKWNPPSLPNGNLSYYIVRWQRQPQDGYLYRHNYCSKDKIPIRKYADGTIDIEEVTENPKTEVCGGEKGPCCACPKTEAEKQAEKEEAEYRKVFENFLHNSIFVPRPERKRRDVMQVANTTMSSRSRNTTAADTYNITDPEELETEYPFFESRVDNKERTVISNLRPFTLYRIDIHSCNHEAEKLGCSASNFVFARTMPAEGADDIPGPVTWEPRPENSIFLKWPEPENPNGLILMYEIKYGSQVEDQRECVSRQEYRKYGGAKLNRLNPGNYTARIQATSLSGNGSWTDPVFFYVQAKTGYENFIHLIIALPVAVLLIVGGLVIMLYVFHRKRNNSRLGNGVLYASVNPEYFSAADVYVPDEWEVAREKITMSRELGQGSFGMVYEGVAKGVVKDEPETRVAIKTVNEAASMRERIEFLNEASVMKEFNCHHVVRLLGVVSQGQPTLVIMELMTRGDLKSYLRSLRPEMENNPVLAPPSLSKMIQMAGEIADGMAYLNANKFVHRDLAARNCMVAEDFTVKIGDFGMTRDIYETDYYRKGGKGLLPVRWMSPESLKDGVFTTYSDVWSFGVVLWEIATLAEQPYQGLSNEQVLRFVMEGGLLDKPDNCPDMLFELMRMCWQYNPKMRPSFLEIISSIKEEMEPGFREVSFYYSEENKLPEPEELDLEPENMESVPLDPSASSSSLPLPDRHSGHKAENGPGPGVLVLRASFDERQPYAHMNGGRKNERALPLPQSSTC
Chain of EGFRΔ19del/T790M/C797S (P00533 with tags, fused parts or gaps DEL746-750/T790M/C797S, form open): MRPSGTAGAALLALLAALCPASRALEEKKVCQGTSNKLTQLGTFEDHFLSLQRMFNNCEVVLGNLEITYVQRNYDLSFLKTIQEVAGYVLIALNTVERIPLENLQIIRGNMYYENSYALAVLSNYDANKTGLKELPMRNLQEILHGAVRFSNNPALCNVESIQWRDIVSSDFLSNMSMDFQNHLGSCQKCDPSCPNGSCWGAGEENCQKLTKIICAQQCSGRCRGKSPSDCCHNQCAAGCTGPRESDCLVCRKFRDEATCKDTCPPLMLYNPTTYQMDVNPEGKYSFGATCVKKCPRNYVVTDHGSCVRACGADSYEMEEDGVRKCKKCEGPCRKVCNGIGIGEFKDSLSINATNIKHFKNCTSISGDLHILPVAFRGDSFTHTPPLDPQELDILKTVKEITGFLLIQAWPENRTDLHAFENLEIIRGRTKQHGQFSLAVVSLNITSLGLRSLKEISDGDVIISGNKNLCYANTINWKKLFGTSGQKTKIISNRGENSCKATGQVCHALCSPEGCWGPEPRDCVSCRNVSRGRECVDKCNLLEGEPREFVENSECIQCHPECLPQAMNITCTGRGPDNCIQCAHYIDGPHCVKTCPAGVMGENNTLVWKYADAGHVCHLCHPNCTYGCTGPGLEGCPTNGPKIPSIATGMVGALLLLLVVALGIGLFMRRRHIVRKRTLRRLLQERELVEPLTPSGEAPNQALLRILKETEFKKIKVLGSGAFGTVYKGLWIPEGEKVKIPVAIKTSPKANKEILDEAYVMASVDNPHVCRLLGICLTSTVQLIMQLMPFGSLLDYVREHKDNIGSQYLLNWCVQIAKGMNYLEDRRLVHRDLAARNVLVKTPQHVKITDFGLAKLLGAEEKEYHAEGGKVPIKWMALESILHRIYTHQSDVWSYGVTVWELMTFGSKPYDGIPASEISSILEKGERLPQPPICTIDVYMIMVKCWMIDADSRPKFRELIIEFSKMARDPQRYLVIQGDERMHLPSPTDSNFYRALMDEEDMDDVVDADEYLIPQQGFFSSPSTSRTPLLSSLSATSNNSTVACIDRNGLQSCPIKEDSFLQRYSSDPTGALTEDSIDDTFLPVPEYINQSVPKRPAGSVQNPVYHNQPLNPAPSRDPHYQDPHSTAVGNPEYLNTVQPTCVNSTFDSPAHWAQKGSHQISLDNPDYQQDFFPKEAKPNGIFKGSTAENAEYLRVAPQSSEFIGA
Chain of Ba/F3 cells with EGFR Δ19del/T790M/C797S mutation gene stably overexpressed (P00533 with tags, fused parts or gaps DEL746-750/T790M/C797S, form open): as above
Chain of EGFR WT (P00533 25-1210): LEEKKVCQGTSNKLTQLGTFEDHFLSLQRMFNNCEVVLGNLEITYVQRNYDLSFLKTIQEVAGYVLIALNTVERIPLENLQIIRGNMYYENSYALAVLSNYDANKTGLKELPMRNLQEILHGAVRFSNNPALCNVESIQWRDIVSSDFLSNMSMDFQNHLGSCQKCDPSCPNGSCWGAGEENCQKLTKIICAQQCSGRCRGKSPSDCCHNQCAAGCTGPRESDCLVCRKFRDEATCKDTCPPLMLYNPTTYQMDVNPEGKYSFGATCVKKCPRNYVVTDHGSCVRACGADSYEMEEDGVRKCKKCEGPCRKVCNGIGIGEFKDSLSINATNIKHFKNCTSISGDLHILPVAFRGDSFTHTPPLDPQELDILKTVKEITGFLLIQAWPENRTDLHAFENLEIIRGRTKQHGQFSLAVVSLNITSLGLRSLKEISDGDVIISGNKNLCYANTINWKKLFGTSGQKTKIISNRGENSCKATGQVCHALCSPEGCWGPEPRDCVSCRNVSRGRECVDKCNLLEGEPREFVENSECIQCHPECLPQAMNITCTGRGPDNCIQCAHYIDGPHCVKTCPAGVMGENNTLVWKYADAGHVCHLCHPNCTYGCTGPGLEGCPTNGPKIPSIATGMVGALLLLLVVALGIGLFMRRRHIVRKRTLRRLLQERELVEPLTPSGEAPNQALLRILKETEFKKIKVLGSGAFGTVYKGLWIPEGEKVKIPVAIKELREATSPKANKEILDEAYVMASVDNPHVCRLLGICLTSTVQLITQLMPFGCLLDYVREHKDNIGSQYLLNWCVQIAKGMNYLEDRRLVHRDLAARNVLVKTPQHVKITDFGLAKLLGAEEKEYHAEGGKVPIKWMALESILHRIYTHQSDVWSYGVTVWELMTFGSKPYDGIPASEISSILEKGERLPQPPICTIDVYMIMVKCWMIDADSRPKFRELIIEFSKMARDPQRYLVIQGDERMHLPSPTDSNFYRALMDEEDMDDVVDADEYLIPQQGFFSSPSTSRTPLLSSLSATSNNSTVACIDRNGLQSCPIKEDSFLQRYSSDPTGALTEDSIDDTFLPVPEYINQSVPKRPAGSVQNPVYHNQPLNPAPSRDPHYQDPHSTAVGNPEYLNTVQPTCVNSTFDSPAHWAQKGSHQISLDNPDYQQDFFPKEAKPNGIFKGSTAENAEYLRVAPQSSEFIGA

In general, IC50 refers to the point on the concentration scale where inhibition reaches its midpoint. Take `CCc1cc(Nc2ncc(Cl)c(Nc3ccc(-c4nccc(OC)n4)cc3P(C)(C)=O)n2)c(OC)cc1N1CCC(N2CCN(C)CC2)CC1` [Compound 19, (2-((5-Chloro-2-((5-ethyl-2-methoxy-4-(4-(4-methylpiperazin-1-yl)piperidin-1-yl)phenyl)amino)pyrimidin-4-yl)amino)-5-(4-methoxypyrimidin-2-yl)phenyl)dimethylphosphine oxide]: the IC50 in the experiment on A431 worked out at 864 nM; against EGFR WT it was 22 nM; against EGFRΔ19del/T790M/C797S, 0.6 nM; on IGF1R it was 144 nM. In addition, the GI50 in experiment [1] worked out at 29.6 nM.

`CCc1cc(Nc2ncc(Br)c(Nc3ccc(-c4ncc(C)cn4)cc3P(C)(C)=O)n2)c(OC)cc1N1CCC(N2CCN(C)CC2)CC1` [Compound 21, (2-((5-Bromo-2-((5-ethyl-2-methoxy-4-(4-(4-methylpiperazin-1-yl)piperidin-1-yl)phenyl)amino)pyrimidin-4-yl)amino)-5-(5-methylpyrimidin-2-yl)phenyl)dimethylphosphine oxide]: the IC50 with A431 came to 1390 nM; at EGFR WT, 25.6 nM; against EGFRΔ19del/T790M/C797S, 0.7 nM; on IGF1R, 224 nM. The GI50 in experiment [1] stood at 8.8 nM.

For `CCc1cc(Nc2ncc(Br)c(Nc3ccc(-c4cncnc4)cc3P(C)(C)=O)n2)c(OC)cc1N1CCC(N2CCN(C)CC2)CC1` [Compound 22, (2-((5-Bromo-2-((5-ethyl-2-methoxy-4-(4-(4-methylpiperazin-1-yl)piperidin-1-yl)phenyl)amino)pyrimidin-4-yl)amino)-5-(pyrimidin-5-yl)phenyl)dimethylphosphine oxide], the IC50 in the experiment on A431 was determined as 831 nM; at EGFR WT, 40.8 nM; against EGFRΔ19del/T790M/C797S, 0.3 nM; on IGF1R, 120 nM. For the same compound, the GI50 in experiment [1] worked out at 20.5 nM.

Regarding `CCc1cc(Nc2ncc(Cl)c(Nc3ccc(-c4cnc(OC)nc4)cc3P(C)(C)=O)n2)c(OC)cc1N1CCC(N2CCN(C)CC2)CC1` [Compound 25, (2-((5-Chloro-2-((5-ethyl-2-methoxy-4-(4-(4-methylpiperazin-1-yl)piperidin-1-yl)phenyl)amino)pyrimidin-4-yl)amino)-5-(2-methoxypyrimidin-5-yl)phenyl)dimethylphosphine oxide], the half-inhibitory concentration (IC50) was 1700 nM in the experiment on A431, 37.6 nM against EGFR WT, 0.4 nM on EGFRΔ19del/T790M/C797S and 169 nM at IGF1R. Also, the GI50 in experiment [1] amounted to 22.4 nM.

For the compound `CCc1cc(Nc2ncc(Br)c(Nc3ccc(-c4ncc(OC)cn4)cc3P(C)(C)=O)n2)c(OC)cc1N1CCC(N2CCN(C)CC2)CC1` [Compound 30], the IC50 was found to be 8870 nM in the experiment on A431, 20.7 nM against EGFR WT, 0.2 nM at EGFRΔ19del/T790M/C797S and 118 nM at IGF1R. In addition, the GI50 in experiment [1] was 15.2 nM.

For `CCc1cc(Nc2ncc(Br)c(Nc3ccc(-c4ccc(C5CC5)nn4)cc3P(C)(C)=O)n2)c(OC)cc1N1CCC(N2CCN(C)CC2)CC1` [Compound 36, (2-((5-Bromo-2-((5-ethyl-2-methoxy-4-(4-(4-methylpiperazin-1-yl)piperidin-1-yl)phenyl)amino)pyrimidin-4-yl)amino)-5-(6-cyclopropylpyridazin-3-yl)phenyl)dimethylphosphine oxide], the IC50 in the experiment on A431 stood at 4640 nM; at EGFR WT, 35.5 nM; against EGFRΔ19del/T790M/C797S, 0.2 nM; at IGF1R, 219 nM. In experiment [1], the GI50 was found to be 22.3 nM.

Take `CCc1cc(Nc2ncc(Br)c(Nc3ccc(-c4ccc(N(C)C)nn4)cc3P(C)(C)=O)n2)c(OC)cc1N1CCC(N2CCN(C)CC2)CC1` [Compound 37, (2-((5-Bromo-2-((5-ethyl-2-methoxy-4-(4-(4-methylpiperazin-1-yl)piperidin-1-yl)phenyl)amino)pyrimidin-4-yl)amino)-5-(6-(dimethylamino)pyridazin-3-yl)phenyl)dimethylphosphine oxide]: the IC50 in the experiment with A431 was above 10000 nM; on EGFR WT, 28.8 nM; against EGFRΔ19del/T790M/C797S, 0.3 nM; at IGF1R, 263 nM. Further, in experiment [1], the GI50 is 17.4 nM.

Turning to `CCc1cc(Nc2ncc(Br)c(Nc3ccc(-c4cnsc4)cc3P(C)(C)=O)n2)c(OC)cc1N1CCC(N2CCN(C)CC2)CC1` [Compound 38, (2-((5-Bromo-2-((5-ethyl-2-methoxy-4-(4-(4-methylpiperazin-1-yl)piperidin-1-yl)phenyl)amino)pyrimidin-4-yl)amino)-5-(isothiazol-4-yl)phenyl)dimethylphosphine oxide], the half-inhibitory concentration (IC50) in the experiment with A431 is 711 nM; on EGFR WT it was 11.1 nM; at EGFRΔ19del/T790M/C797S, 0.3 nM; at IGF1R, 64 nM. Besides, the GI50 in experiment [1] came to 11.2 nM.

With `CCc1cc(Nc2ncc(Cl)c(Nc3ccc(-c4nnc(C)o4)cc3P(C)(C)=O)n2)c(OC)cc1N1CCC(N2CCN(C)CC2)CC1` [Compound 45, (2-((5-Chloro-2-((5-ethyl-2-methoxy-4-(4-(4-methylpiperazin-1-yl)piperidin-1-yl)phenyl)amino)pyrimidin-4-yl)amino)-5-(5-methyl-1,3,4-oxadiazol-2-yl)phenyl)dimethylphosphine oxide], the IC50 in the experiment on A431 is 1080 nM; against EGFR WT, 31.5 nM; on EGFRΔ19del/T790M/C797S, 0.4 nM; on IGF1R it was 124 nM. The GI50 in experiment [1] was determined as 26.2 nM.

Regarding `CCc1cc(Nc2ncc(Br)c(Nc3ccc(-c4cn(C)c5ncccc45)cc3P(C)(C)=O)n2)c(OC)cc1N1CCC(N2CCN(C)CC2)CC1` [Compound 46, (2-((5-Bromo-2-((5-ethyl-2-methoxy-4-(-4-(4-methylpiperazin-1-yl)piperidin-1-yl)phenyl)amino)pyrimidin-4-yl)amino)-5-(1-methyl-1H-pyrrolo[2,3-b]pyridin-3-yl)phenyl)dimethylphosphine oxide], the IC50 is 2300 nM in the experiment with A431, 47.6 nM against EGFR WT, 1.7 nM on EGFRΔ19del/T790M/C797S and 628 nM at IGF1R. For the same compound, the GI50 in experiment [1] was determined as 30.3 nM.

Regarding `CCc1cc(Nc2ncc(Br)c(Nc3ccc(-c4cnn(CCN5CCOCC5)c4)cc3P(C)(C)=O)n2)c(OC)cc1N1CCC(N2CCN(C)CC2)CC1` [Compound 47, (2-((5-Bromo-2-((5-ethyl-2-methoxy-4-(4-(4-methylpiperazin-1-yl)piperidin-1-yl)phenyl)amino)pyrimidin-4-yl)amino)-5-(1-(2-morpholinoethyl)-1hydro-pyrazol-4-yl)phenyl)dimethylphosphine oxide], the IC50 in the experiment on A431 was 771 nM; at EGFR WT, 15.5 nM; on EGFRΔ19del/T790M/C797S, 0.9 nM; at IGF1R, 60 nM. Further, in experiment [1], the GI50 turned out to be 23.4 nM.

For the compound `CCc1cc(Nc2ncc(Br)c(Nc3ccc(-c4ccccc4C#N)cc3P(C)(C)=O)n2)c(OC)cc1N1CCC(N2CCN(C)CC2)CC1` [Compound 51, 4′-((5-Bromo-2-((5-ethyl-2-methoxy-4-(4-(4-methylpiperazin-1-yl)piperidin-1-yl)phenyl)amino)pyrimidin-4-yl)amino)-3′-(dimethylphosphoryl)-[1,1′-biphenyl]-2-carbonitrile], the IC50 with A431 was 578 nM; against EGFR WT it was 30.8 nM; on EGFRΔ19del/T790M/C797S, 1.3 nM; at IGF1R, 269 nM. Moreover, the GI50 in experiment [1] came out at 23.5 nM.

On to `CCc1cc(Nc2ncc(Br)c(Nc3ccc(-c4cn(C)nc4OC)cc3P(C)(C)=O)n2)c(OC)cc1N1CCC(N2CCN(C)CC2)CC1` [Compound 63], for which the IC50 amounted to 512 nM with A431, 38.8 nM against EGFR WT, 1.3 nM on EGFRΔ19del/T790M/C797S and 335 nM at IGF1R. Further, in experiment [1], the GI50 was found to be 24.5 nM.

Values taken from patent US20220402948A1, “EGFR INHIBITOR, COMPOSITION AND PREPARATION METHOD THEREFOR” (BETTA PHARMACEUTICALS CO., LTD., priority 2019, published 2022).
